Reference: patent US20060014737A1, “Methods of treatment of amyloidosis using bi-aryl aspartyl protease inhibitors” (priority 2004, published 2006)
Values joined by “and” are separate entries in the source; they are usually repeats but may differ in a detail not shown here. Equal values may be shown once.

Legend:
A-beta = experiment: Efficacy of compounds to inhibit A-beta concentration; type: in vivo, rat; settings: % inhibition of A-beta vs vehicle control
Method: Efficacious compounds of the present invention are those able to decrease the amount of A-beta produced compared to a control, where beta-secretase mediated cleavage is observed and measured in the absence of the compounds. Detection of efficacy can be by analysis of A-beta levels, for example, by immunoassay, fluorometric or chromogenic assay, HPLC, or other means of detection. The efficacy of the compounds of formula (I) was determined as a percentage inhibition corresponding to A-beta concentrations for tissue treated and untreated with a compound of formula (I).
The invention encompasses compounds of formula (I) that are efficacious. Efficacy is calculated as a percentage of concentrations as follows: Efficacy=(1−(total A-beta in dose group/total A-beta in vehicle control))*100% wherein the “total A-beta in dose group” equals the concentration of A-beta in the tissue, (e.g., rat brain) treated with the compound, and the “total A-beta in vehicle control” equals the concentration of A-beta in the tissue, yielding a % inhibition of A-beta production. Statistical significance is determined by p-value <0.05 using the Mann Whitney t-test. See, for example, Dovey et al., J. Neurochemistry, 2001, 76:173-181.

[1] = tested on: catD versus beta-secretase (BACE); experiment: Selectivity for BACE versus catD (ratio of IC50 values); type: biochemical; settings: each value an average of four runs; multiple values = more than one experiment
Method: (§1) Investigation of potential beta-secretase inhibitors produced compounds with increased selectivity for beta-secretase over other aspartyl proteases such as cathepsin D (catD), cathepsin E (catE), HIV protease, and renin. Selectivity was calculated as a ratio of inhibition (IC50) values in which the inhibition of beta-secretase was compared to the inhibition of other aspartyl proteases. […] Alternatively, a compound is selective when its binding affinity is greater for its desired target (e.g., beta-secretase) versus a secondary target (e.g., catD). Accordingly, methods of treatment include administering selective compounds of formula (I) having a lower IC50 value for inhibiting beta-secretase, or greater binding affinity for beta-secretase, than for other aspartyl proteases such as catD, catE, HIV protease, or renin. A selective compound is also capable of producing a higher ratio of desired effects to adverse effects, resulting in a safer method of treatment.
The compounds of formula (I) can be selective for beta-secretase versus catD. […] Selectivity is reported as the ratio of IC50(catD):IC50(BACE).
(§2) In the following examples, each value is an average of four experimental runs and multiple values for one compound indicate that more than one experiment was conducted.

[2] = tested on: catE versus beta-secretase (BACE); experiment: Selectivity for BACE versus catE (ratio of IC50 values); type: biochemical; settings: each value an average of four runs; multiple values = more than one experiment
Method: as §1
The compounds of formula (I) can be selective for beta-secretase versus catE. […] Selectivity is reported as the ratio of IC50(catE):IC50(BACE).
as §2

SMILES: CC(=O)NC(Cc1cc(F)cc(F)c1)C(O)CNCc1cc(CC(C)(C)C)ccc1-n1ccnc1 (centres unmarked) [Example 41.1, N-{1-(3,5-Difluoro-benzyl)-3-[5-(2,2-dimethyl-propyl)-2-imidazol-1-yl-benzylamino]-2-hydroxy-propyl}-acetamide]
- Efficacy (% Inhibition, 100 mg/kg) cortex (A-beta; cortex): 15%
- Efficacy (% Inhibition, 100 mg/kg) plasma (A-beta; plasma): 47%

SMILES: CC(=O)NC(Cc1cc(F)cc(F)c1)C(O)CNCc1cc(CC(C)(C)C)ccc1-n1cnc(CO)c1 (centres unmarked) [Example 41.3, N-(1-(3,5-difluorophenyl)-3-hydroxy-4-(2-(4-(hydroxymethyl)-1H-imidazol-1-yl)-5-neopentylbenzylamino)butan-2-yl)acetamide]
- Selectivity IC50(catD)/IC50(BACE) [1]: 1.6

SMILES: CC(=O)NC(Cc1cc(F)cc(F)c1)C(O)CNCc1cc(CC(C)(C)C)ccc1-n1cnc(C)c1 (centres unmarked) [Example 41.4, N-{1-(3,5-Difluoro-benzyl)-3-[5-(2,2-dimethyl-propyl)-2-(4-methyl-imidazol-1-yl)-benzylamino]-2-hydroxy-propyl}-acetamide]
- Selectivity IC50(catD)/IC50(BACE) [1]: 1.7

SMILES: CC(=O)NC(Cc1cc(F)cc(F)c1)C(O)CNCc1cc(CC(C)(C)C)ccc1-n1cnc2ccccc21 (centres unmarked) [Example 41.5, N-[3-[2-Benzoimidazol-1-yl-5-(2,2-dimethyl-propyl)-benzylamino]-1-(3,5-difluoro-benzyl)-2-hydroxy-propyl]-acetamide]
- Selectivity IC50(catD)/IC50(BACE) [1]: 3.6 and 3.0

SMILES: CC(=O)NC(Cc1cc(F)cc(F)c1)C(O)CNCc1cc(CC(C)(C)C)ccc1-n1nccn1 (centres unmarked) [Example 41.7, N-(1-(3,5-difluorophenyl)-3-hydroxy-4-(5-neopentyl-2-(2H-1,2,3-triazol-2-yl)benzylamino)butan-2-yl)acetamide]
- Selectivity IC50(catD)/IC50(BACE) [1]: >33.1

SMILES: CC(=O)NC(Cc1cc(F)cc(F)c1)C(O)CNCc1cc(CC(C)(C)C)ccc1-n1cnc(CO)c1 (centres unmarked) [Example 41.9, N-(1-(3,5-difluorophenyl)-3-hydroxy-4-(2-(4-(hydroxymethyl)-1H-imidazol-1-yl)-5-neopentylbenzylamino)butan-2-yl)acetamide]
- Selectivity IC50(catE)/IC50(BACE) [2]: 1.2

SMILES: CC(=O)NC(Cc1cc(F)cc(F)c1)C(O)CNCc1cc(CC(C)(C)C)ccc1-n1nccn1 (centres unmarked) [Example 41.11, N-(1-(3,5-difluorophenyl)-3-hydroxy-4-(5-neopentyl-2-(2H-1,2,3-triazol-2-yl)benzylamino)butan-2-yl)acetamide]
- Selectivity IC50(catE)/IC50(BACE) [2]: 1.4
